The target in experiment [1] is full-length wt-BTK enzyme (Homo sapiens (Human), UniProt Q06187). The experiment can be described thus: Biochemical kinase assay wt-BTK (IMAP). A digest of the protocol: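 IMAP fluorescence polarization assay: 1.2 nM enzyme pre-incubated 1 h with compound at room temperature, then 50 nM fluorescein-labeled MBP-derived peptide and 4 μM ATP added. Reaction ran 2 h at room temperature in the dark before quenching with IMAP binding solution.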

For experiment [2], the target named is full-length BTK C481S enzyme (Homo sapiens (Human), UniProt Q06187, C481S). The experiment can be described thus: Biochemical kinase assay BTK C481S (IMAP). A digest of the protocol: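 Full-length BTK C481S (1.2 nM) was pre-incubated with compound for 1 h at room temperature in the dark, then reacted with fluorescein-labelled MBP-derived peptide (50 nM) and ATP (7 μM) for 2 h. Reactions were quenched with IMAP binding solution, and IC50 values were derived from fluorescence polarization.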
Chain of full-length BTK C481S enzyme (Q06187 whole entry C481S): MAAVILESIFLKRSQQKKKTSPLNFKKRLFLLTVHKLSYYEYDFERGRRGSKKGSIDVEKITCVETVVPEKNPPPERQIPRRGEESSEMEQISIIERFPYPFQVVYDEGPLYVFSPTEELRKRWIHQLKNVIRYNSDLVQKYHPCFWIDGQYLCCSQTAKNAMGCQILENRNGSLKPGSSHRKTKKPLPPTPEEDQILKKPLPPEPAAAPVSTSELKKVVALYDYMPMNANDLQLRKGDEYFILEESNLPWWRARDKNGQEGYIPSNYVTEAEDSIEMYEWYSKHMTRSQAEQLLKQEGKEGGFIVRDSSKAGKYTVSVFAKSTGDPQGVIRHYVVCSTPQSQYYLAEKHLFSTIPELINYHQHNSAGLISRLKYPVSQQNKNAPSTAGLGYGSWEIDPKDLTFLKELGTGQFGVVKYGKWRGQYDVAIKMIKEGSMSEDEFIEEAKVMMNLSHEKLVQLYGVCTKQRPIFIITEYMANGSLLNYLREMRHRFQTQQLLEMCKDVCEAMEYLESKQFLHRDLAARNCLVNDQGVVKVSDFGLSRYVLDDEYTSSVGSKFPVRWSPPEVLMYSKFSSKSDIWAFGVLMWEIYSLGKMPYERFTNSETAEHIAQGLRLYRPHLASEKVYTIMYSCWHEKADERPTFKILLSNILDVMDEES

Experiment [3] has as its system wt-REC-1 mantle cell lymphoma cells. The experiment can be described thus: Cell proliferation assay wt-REC-1 (ATPlite, 72 hours). The format is cell-based. To be noted: read-out: IC50 wt-REC-1. A digest of the protocol: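 Luminescent viability read over 72 h, start-of-incubation signal recorded separately to separate growth from cell death. Percentage growth referenced to compound-free 0.3% DMSO wells; IC50 from 4-parameter logistic fit.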
In general terms: ATP-based viability assays read luminescence as a measure of living cells.

The next experiment relates to REC-1 T474I cell lines. The experiment is described as follows: Cell proliferation assay REC-1 BTK T474I knock-in cells (ATPlite, 72 hours). The format is cell-based. To be noted: 72 hours, read-out: IC50 REC-1 T474I. A digest of the protocol: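 REC-1 cells carrying CRISPR knock-in mutant BTK, single-cell cloned and sequence-confirmed, were exposed to compound for 72 h and read by ATPlite luminescence. Percentage growth was calculated against the signal at the start of incubation and against untreated 0.3% DMSO wells as maximum growth.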

The subject of experiment [4] is wt-TMD8 diffuse large B-cell lymphoma cells. The experiment is described as follows: Cell proliferation assay wt-TMD8 (ATPlite, 120 hours). The experiment is classed as cell-based. To be noted: wt-TMD8 cells, 120 hours, ATPlite, read-out: IC50 wt-TMD8. Here is the method:
Cell proliferation assay wt-TMD8 diffuse large B-cell lymphoma cells were purchased from Tokyo Medical and Dental University and cultured in RPMI-1640 cell culture medium (cat. no. 61870036, Life Technologies), supplemented with 10% (v/v) heat-inactivated fetal bovine calf serum and 1% penicillin/[…]. 1600 cells per well (in 45 μl) were seeded in a white 384-well culture plate (cat. no. 781080, Greiner Bio-One) and allowed to rest for at least 5 hours at 37° C., 95% humidity, and 5% CO2. 5 μl compound solution was added to the cells and incubation was continued for 120 hours (5 days), followed by addition of 24 μl ATPlite 1Step™ (PerkinElmer, Groningen, The Netherlands) solution was added to each well. Luminescence was recorded on an Envision multimode reader. The cell signal at the start of incubation was recorded separately in order to distinguish between cell population growth and cell death. In addition, maximum growth was determined by incubation of a duplicate without compound in the presence of 0.3% DMSO. Percentage growth was used as the main y-axis signal.

These results are taken from patent US20250074911A1, “MACROCYCLIC BTK INHIBITORS” (Crossfire Oncology Holding B.V., priority 2021, published 2025).

The IC50 is the concentration that inhibits the measured activity by half.

The structures appear in SMILES notation. Read-outs that look alike come from different tables or passages of the source.

Chain of full-length wt-BTK enzyme (Q06187 whole entry): as the sequence (Q06187 whole entry C481S) above, with S481C counted along it

For the molecule `Nc1ncc2c3c1c(-c1ccc(C(=O)Nc4cc(C(F)(F)F)ccn4)cc1)nn3[C@@H]1CCC[C@H](C1)NC(=O)CNCC/C=C/2` [Example 32], the IC50 in experiment [1] is less than 5 nM; in experiment [2], less than 5 nM; in experiment [3] (72 h) it was less than 100 nM; in the experiment with REC-1 T474I cell lines (Homo sapiens, Rec1), 100 to 500 nM; in experiment [4] (B-cell), less than 100 nM.
With `C[C@@H]1CCn2nc(-c3ccc(C(=O)Nc4cc(C(F)(F)F)ccn4)cc3)c3c(N)ncc(c32)/C=C/CCN2CC[C@@H]2C(=O)N1` [Example 74], the IC50 is less than 5 nM in experiment [1]; less than 5 nM in experiment [2]; 100 to 1000 nM in experiment [3] (72 h); 500 to 10000 nM in the experiment on REC-1 T474I cell lines (Homo sapiens, Rec1); less than 100 nM in experiment [4] (B-cell).
For `CN1CC/C=C/c2cnc(N)c3c(-c4ccc(C(=O)Nc5cc(C(F)(F)F)ccn5)cc4)nn(c23)[C@@H]2CCC[C@H](C2)NC(=O)CC1` [Example 38], the IC50 is less than 5 nM in experiment [1]; less than 5 nM in experiment [2]; less than 100 nM in experiment [3] (72 h); less than 100 nM in the experiment with REC-1 T474I cell lines (Homo sapiens, Rec1); less than 100 nM in experiment [4] (B-cell).
In the case of `CC1NC/C=C/c2cnc(N)c3c(-c4ccc(C(=O)Nc5cc(C(F)(F)F)ccn5)cc4)nn(c23)CC[C@@H](C)NC1=O` (single isomer, unassigned) [Example 144], the IC50 was 5 to 50 nM in experiment [1]; 5 to 50 nM in experiment [2]; 1000 to 10000 nM in experiment [3] (72 hours); 500 to 10000 nM in the experiment with REC-1 T474I cell lines; less than 100 nM in experiment [4].
As for `C[C@@H]1CCn2nc(-c3ccc(C(=O)Nc4cc(C(F)(F)F)ccn4)cc3)c3c(N)ncc(c32)/C=C/CCOCCC(=O)N1` [Example 69], the IC50 in experiment [1] is less than 5 nM; in experiment [2] it was less than 5 nM; in experiment [3] (72 h), 100 to 1000 nM; with REC-1 T474I cell lines (Homo sapiens, Rec1), 100 to 500 nM; in experiment [4] (B-cell) it was less than 100 nM.
Take `Nc1ncc2c3c1c(-c1ccc(C(=O)Nc4ccccn4)cc1)nn3[C@@H]1CCC[C@H](C1)C(=O)NCCCCCCCCC2` [Example 123]: the IC50 in experiment [1] was less than 5 nM; in experiment [2], less than 5 nM; in experiment [3] (72 h) it was 100 to 1000 nM; with REC-1 T474I cell lines (Homo sapiens, Rec1) it was 500 to 10000 nM; in experiment [4] (B-cell) it was less than 100 nM.
For the molecule `CN1C/C=C/c2cnc(N)c3c(-c4ccc(C(=O)Nc5cc(C(F)(F)F)ccn5)cc4)nn(c23)[C@@H]2CCCN(C2)C(=O)CCCC1` [Example 82], the IC50 was less than 5 nM in experiment [1]; less than 5 nM in experiment [2]; 100 to 1000 nM in experiment [3] (72 h); 500 to 10000 nM with REC-1 T474I cell lines (Homo sapiens, Rec1); less than 100 nM in experiment [4] (B-cell).
For `Nc1ncc2c3c1c(-c1ccc(C(=O)Nc4cc(C(F)(F)F)ccn4)cc1)nn3[C@@H]1CCC[C@H](C1)NC(=O)CCCC[C@@H](O)/C=C/2` [Example 12], the IC50 in experiment [1] is less than 5 nM; in experiment [2], less than 5 nM; in experiment [3] (72 h), less than 100 nM; in the experiment on REC-1 T474I cell lines (Homo sapiens, Rec1) it was 500 to 10000 nM; in experiment [4] (B-cell), less than 100 nM.
Consider `Nc1ncc2c3c1c(-c1ccc(C(=O)Nc4cc(C(F)(F)F)ccn4)cc1)nn3[C@@H]1CCCN(C1)C(=O)CCCCC/C=C/2` [Example 78], for which the IC50 in experiment [1] was less than 5 nM; in experiment [2] it was less than 5 nM; in experiment [3] (72 h) it was 100 to 1000 nM; in the experiment with REC-1 T474I cell lines (Homo sapiens, Rec1), 500 to 10000 nM; in experiment [4] (B-cell), less than 100 nM.
As to `C[C@@H]1CNC(=O)[C@@H]2CCC[C@H](C2)n2nc(-c3ccc(C(=O)Nc4cc(C(F)(F)F)ccn4)cc3)c3c(N)ncc(c32)/C=C/CO1` [Example 149], the IC50 was less than 5 nM in experiment [1]; less than 5 nM in experiment [2]; 100 to 1000 nM in experiment [3] (72 h); less than 100 nM with REC-1 T474I cell lines (Homo sapiens, Rec1); less than 100 nM in experiment [4] (B-cell).
Consider `Nc1ncc2c3c1c(-c1ccc(C(=O)Nc4cc(C(F)(F)F)ccn4)cc1)nn3[C@@H]1CCC[C@H](C1)NC(=O)CCCCC/C=C/2` [Example 37], for which the IC50 in experiment [1] is less than 5 nM; in experiment [2], less than 5 nM; in experiment [3] (72 h) it was less than 100 nM; in the experiment with REC-1 T474I cell lines (Homo sapiens, Rec1), less than 100 nM; in experiment [4] (B-cell), less than 100 nM.
`C[C@@H]1CC(=O)N[C@@H]2CC[C@H](C2)c2nc(-c3ccc(C(=O)Nc4cc(C#N)ccn4)cc3)c3c(N)ncc(n23)/C=C/CCN1` [Example 208]: the IC50 in experiment [1] was less than 5 nM; in experiment [2] it was less than 5 nM; in experiment [3] (72 hours) it was 1000 to 10000 nM; in the experiment on REC-1 T474I cell lines (Homo sapiens, Rec1), 500 to 10000 nM; in experiment [4] (B-cell), less than 100 nM.
On to `C[C@@H]1CCn2nc(-c3ccc(C(=O)Nc4cc(C(F)(F)F)ccn4)cc3)c3c(N)ncc(c32)/C=C/CN2CC[C@H](C2)C(=O)N1` [Example 148], for which the IC50 is less than 5 nM in experiment [1]; less than 5 nM in experiment [2]; 100 to 1000 nM in experiment [3] (72 h); 500 to 10000 nM in the experiment with REC-1 T474I cell lines (Homo sapiens, Rec1); less than 100 nM in experiment [4] (B-cell).
`C[C@@H]1CC(=O)N[C@@H]2CCC[C@H](C2)n2nc(-c3ccc(C(=O)Nc4cc(F)ccn4)cc3)c3c(N)ncc(c32)/C=C/CCN1` [Example 191]: the IC50 in experiment [1] is less than 5 nM; in experiment [2], less than 5 nM; in experiment [3] (72 h), less than 100 nM; with REC-1 T474I cell lines (Homo sapiens, Rec1), less than 100 nM; in experiment [4] (B-cell), less than 100 nM.
With `CN1CC/C=C/c2cnc(N)c3c(-c4ccc(C(=O)Nc5cc(C(F)(F)F)ccn5)cc4)nn(c23)[C@@H]2CCC[C@H](C2)C(=O)NCC1` [Example 5], the IC50 in experiment [1] is less than 5 nM; in experiment [2], less than 5 nM; in experiment [3] (72 h), less than 100 nM; in the experiment with REC-1 T474I cell lines (Homo sapiens, Rec1), 100 to 500 nM; in experiment [4] (B-cell), less than 100 nM.
For the molecule `CC(=O)N1CC/C=C/c2cnc(N)c3c(-c4ccc(C(=O)Nc5cc(C(F)(F)F)ccn5)cc4)nn(c23)[C@@H]2CCC[C@H](C2)NC(=O)C[C@H]1C` [Example 190], the IC50 was less than 5 nM in experiment [1]; less than 5 nM in experiment [2]; 1000 to 10000 nM in experiment [3] (72 h); 500 to 10000 nM with REC-1 T474I cell lines (Homo sapiens, Rec1); less than 100 nM in experiment [4] (B-cell).
As to `Nc1ncc2c3c1c(-c1ccc(C(=O)Nc4ccccn4)cc1)nn3[C@@H]1CCC[C@H](C1)NC(=O)COC/C=C\C2` [Example 104b], the IC50 in experiment [1] lay within 50 to 500 nM; in experiment [2], 5 to 50 nM; in experiment [3] (72 h) it was 100 to 1000 nM; with REC-1 T474I cell lines (Homo sapiens, Rec1), 500 to 10000 nM; in experiment [4] (B-cell), 100 to 1000 nM.
Take `C[C@@H]1CCn2nc(-c3ccc(C(=O)Nc4cc(C(F)(F)F)ccn4)cc3)c3c(N)ncc(c32)/C=C/C[C@H](C)OCCC(=O)N1` [Example 73]: the IC50 is less than 5 nM in experiment [1]; less than 5 nM in experiment [2]; less than 100 nM in experiment [3] (72 h); 100 to 500 nM with REC-1 T474I cell lines (Homo sapiens, Rec1); less than 100 nM in experiment [4] (B-cell).
Regarding `COc1ccc(F)cc1C(=O)NCc1ccc(-c2nc3n4c(cnc(N)c24)/C=C/CCN(C(C)=O)CC(=O)N[C@@H]2CC[C@@H]3C2)cc1` [Example 221], the IC50 in experiment [1] was less than 5 nM; in experiment [2] it was less than 5 nM; in experiment [3] (72 h) it was 1000 to 10000 nM; in the experiment on REC-1 T474I cell lines (Homo sapiens, Rec1) it was 500 to 10000 nM; in experiment [4] (B-cell), less than 100 nM.
As to `C[C@@H]1CCn2nc(-c3ccc(C(=O)Nc4cc(C(F)(F)F)ccn4)cc3)c3c(N)ncc(c32)/C=C/CCCOCC(=O)N1` [Example 70], the IC50 is less than 5 nM in experiment [1]; less than 5 nM in experiment [2]; less than 100 nM in experiment [3] (72 h); 500 to 10000 nM in the experiment with REC-1 T474I cell lines (Homo sapiens, Rec1); less than 100 nM in experiment [4] (B-cell).
With `Nc1ncc2c3c1c(-c1ccc(C(=O)Nc4cc(C(F)(F)F)ccn4)cc1)nn3[C@@H]1CCC[C@H](C1)NC(=O)CNCCC/C=C/2` [Example 31], the IC50 in experiment [1] is less than 5 nM; in experiment [2], less than 5 nM; in experiment [3] (72 h) it was less than 100 nM; in the experiment on REC-1 T474I cell lines (Homo sapiens, Rec1), less than 100 nM; in experiment [4] (B-cell), less than 100 nM.
